Measurements published in ChEMBL document CHEMBL4699591, “An efficient synthesis tetrazole and oxadiazole analogues of novel 2'-deoxy-C-nucleosides and their antitumor activity” (2020).

Columns and labels:
Assay type in all cases: functional
MDA-MB-231 [1] = assay: Cytotoxicity against human MDA-MB-231 cells assessed as inhibition of cell growth at 10 uM incubated for 72 hrs by MTT assay relative to control
HeLa = assay: Cytotoxicity against human HeLa cells assessed as inhibition of cell growth at 2 uM incubated for 72 hrs by MTT assay relative to control
PC-3 = assay: Cytotoxicity against human PC-3 cells assessed as inhibition of cell growth at 2 uM incubated for 72 hrs by MTT assay relative to control
MDA-MB-231 [2] = assay: Cytotoxicity against human MDA-MB-231 cells assessed as inhibition of cell growth at 2 uM incubated for 72 hrs by MTT assay relative to control
SK-OV-3 = assay: Cytotoxicity against human SK-OV-3 cells assessed as inhibition of cell growth at 2 uM incubated for 72 hrs by MTT assay relative to control
PANC-1 = assay: Cytotoxicity against human PANC-1 cells assessed as inhibition of cell growth at 2 uM incubated for 72 hrs by MTT assay relative to control

SMILES: CC(C)c1nc([C@H]2C[C@H](O)[C@@H](CO)O2)no1
- inhibition at 10 µM (MDA-MB-231 [1]): 9%

SMILES: Cc1nnc([C@@H]2C[C@H](O)[C@@H](CO)O2)o1
- inhibition at 10 µM (MDA-MB-231 [1]): 9%

SMILES: COc1cccc2c1C(=O)c1c(O)c3c(c(O)c1C2=O)C[C@@](O)(C(=O)CO)C[C@@H]3O[C@H]1C[C@H](N)[C@H](O)[C@H](C)O1 [DOXORUBICIN]
- inhibition at 2 µM (HeLa): > 90%
- inhibition at 2 µM (PC-3): > 90%
- inhibition at 2 µM (MDA-MB-231 [2]): > 90%
- inhibition at 2 µM (SK-OV-3): > 90%
- inhibition at 2 µM (PANC-1): > 90%
